From paper PMC3606385 (PLoS ONE, 2013)
Where “and” joins values, the source holds several entries; their conditions need not be identical. Equal entries are not always repeated.

Legend:
[1] = target: T1, rat liver microsomal 11β-HSD1 (Rattus norvegicus, UniProt P16232); assay: Mode of inhibition (Lineweaver-Burk), rat liver microsomal 11β-HSD1; assay type: biochemical; conditions: Lineweaver-Burk plot, substrate 11DHC
T1 construct: Rat liver, testis and kidney microsomes were prepared as described previously; from tissue; host or cells: rat liver microsomes
Protocol: (§1) The rat testis and liver or human liver microsomes were used for 11β-HSD1 assay. 11β-HSD1 activity was performed in the microsome according to a previously described method. In brief, the assay tubes contained 25 nM substrate 11DHC (for rat) or cortisone (for human), spiked with 30,000 cpm their respective ^3H-11keto-steroid, 0.2 mM NADPH and 5 mM glucose-6-phosphaare in the PBS buffer. 2 µg microsomes were added to each tube to initiate the reaction and the reaction mixture was incubated for up to 2 hrs, during which the reaction is within the linear range. The rest procedure was similar to 11β-HSD1 assay in intact cells.
(§2) The IC50 was determined by adding different concentrations of each compound in the 11β-HSD1 or 11β-HSD2 reaction as described. The mode of inhibition was assayed by adding various concentrations of steroid substrates in the presence of an inhibitor as described.
Enzyme data were subjected to nonlinear analysis by GraphPad (Version 5, GraphPad Software Inc., San Diego, CA) for IC50. Lineweaver-Burk plot was used for the mode of inhibition. Data were subjected to analysis by one-way ANOVA followed by Tukey's multiple comparisons testing to identify significant differences between groups when three were calculated. Differences were regarded as significant at P<0.05.

Human 11β-HSD1 = target: T2, Human 11β-HSD1 (Homo sapiens, UniProt P28845); assay: 11β-HSD1 assay in microsomes from CHOP cells transfected with human HSD11B1; assay type: biochemical
T2 construct: expressed in transfected cells; host or cells: CHOP cells (transient, FuGENE)
Protocol: An expression plasmid was constructed to express human 11β-HSD1 (HSD11B1) cDNA in pcDNA I expression vector from its original human HSD11B1 vector (pBluescriptSK+).[15]. The Escherichia coli transformants carrying an insert were selected by colony hybridization, and a clone with the insert in the correct orientation relative to the vector T7 promoter was identified by restriction mapping. All transfections were carried out on 80% confluent cultures in 12-well plates. Aliquots of 1 µg HSD11B1 pcDNA I were transfected into mammalian CHOP cells with the FuGENE Transfection Reagent (Roche) according to manufacturer's protocol. Cells were allowed to grow for 24 hours in media containing 10% fetal bovine serum. Then media were removed and cells were harvested for 11β-HSD1 activity assay.
as §1, with “In brief, the assay tubes contained 25 nM substrate 11DHC (for rat) or cortisone (for human), spiked with 30,000 cpm their respective ^3H-11keto-steroid, 0.2 mM NADPH and 5 mM glucose-6-phosphaare in the PBS buffer.” left out
as §2

rats = conditions: cited from earlier work
diabetic rats = conditions: normal or high fat diet; cited from earlier work
Rat 11β-HSD1 [2] = target: T3, Rat 11β-HSD1 (Rattus norvegicus, UniProt P16232); assay: 11β-HSD1 assay in intact rat Leydig cells; assay type: cell-based
T3 construct: endogenous in cells; host or cells: primary adult Sprague-Dawley rat Leydig cells
Protocol: Rat Leydig cells contain the highest 11β-HSD1 activity in all cell types of rat tissues, and were used for rat 11β-HSD1 enzyme sources. Purified rat Leydig cells were obtained from 90-day-old Sprague-Dawley rats by collagenase digestion of the testes followed by Percoll density centrifugation of the cell suspension, according to the previously described method. […] The purity of cell fractions was evaluated by histochemical staining for 3β-hydroxysteroid dehydrogenase activity with […] etiocholanolone as the steroid substrate.
11β-HSD1 reductase activity was performed in intact cells using endogenous cofactor NADPH as described previously. […] 25×10^3 cells were added to each tube to initiate the reaction and the reaction mixture was incubated for up to 2 hrs, during which the reaction is within the linear range. At the end of reaction, the reaction was stopped by adding 2 ml ice-cold ether. The steroids were extracted, and the organic layer was dried under nitrogen. The steroids were separated chromatographically on thin layer plates in chloroform and methanol (90∶10, v/v), and the radioactivity was measured using a scanning radiometer (System AR2000, Bioscan Inc., Washington, DC) as described previously. The percentage conversion of 11DHC to CORT or cortisone to cortisol was calculated by dividing the radioactive counts identified as 11-OH-steroids by the total counts.
as §2

Rat 11β-HSD1 [3] = target: T3, Rat 11β-HSD1; assay: 11β-HSD1 assay in adult rat testis microsomes; assay type: biochemical
Protocol: Rats were euthanized by CO2, and livers, testes and kidneys were collected. Rat liver, testis and kidney microsomes were prepared as described previously. In brief, rat liver and kidney were homogenized in […] PBS buffer containing 0.25 M sucrose, and nuclei and large cell debris were removed by centrifugation at 1500× g for 10 min. The post-nuclear supernatants were centrifuged twice at 105,000×g, the resultant microsomal pellets were resuspended. Protein contents were measured by Bio-Rad Dye Reagent Concentrate (Cat.#500-0006). Microsomes were used for measurement of 11β-HSD1 and 11β-HSD2 activities.
as §1, with “In brief, the assay tubes contained 25 nM substrate 11DHC (for rat) or cortisone (for human), spiked with 30,000 cpm their respective ^3H-11keto-steroid, 0.2 mM NADPH and 5 mM glucose-6-phosphaare in the PBS buffer.” left out
as §2

T3 sequence (P16232 whole entry): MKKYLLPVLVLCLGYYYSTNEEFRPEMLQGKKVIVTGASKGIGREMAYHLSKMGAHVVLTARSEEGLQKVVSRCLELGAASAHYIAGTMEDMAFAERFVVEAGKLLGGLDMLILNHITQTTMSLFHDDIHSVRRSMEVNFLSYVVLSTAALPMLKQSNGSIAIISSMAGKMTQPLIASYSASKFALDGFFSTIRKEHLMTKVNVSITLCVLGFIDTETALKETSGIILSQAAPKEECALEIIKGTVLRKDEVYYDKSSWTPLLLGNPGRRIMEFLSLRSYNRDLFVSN
T2 sequence (P28845 whole entry): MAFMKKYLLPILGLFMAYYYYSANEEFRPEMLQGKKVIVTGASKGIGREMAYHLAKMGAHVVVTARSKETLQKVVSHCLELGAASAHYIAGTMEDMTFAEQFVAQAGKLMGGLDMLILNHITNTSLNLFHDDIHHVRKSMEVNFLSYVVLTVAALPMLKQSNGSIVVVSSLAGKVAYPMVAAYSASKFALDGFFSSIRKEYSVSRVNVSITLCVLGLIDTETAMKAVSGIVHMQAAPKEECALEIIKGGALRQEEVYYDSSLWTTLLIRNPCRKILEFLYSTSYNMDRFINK
T1 sequence (P16232 whole entry): as the sequence (P16232 whole entry) above

COc1cc(/C=C/C(=O)CC(=O)/C=C/c2ccc(O)c(OC)c2)ccc1O [1 (Curcumin), Curcumin]
Mode of inhibition of rat 11β-HSD1 [1]: competitive inhibitor | IC50 (Human 11β-HSD1): 10.6 ± 7.17 µM | Effect on serum and liver cholesterol levels (rats): lowered | Effect on serum Tg (diabetic rats): remarkably reduced | Effect on serum cholesterol (diabetic rats): remarkably reduced | IC50 (Rat 11β-HSD1 [2]; intact adult rat Leydig cells, read-out: IC50 rat 11β-HSD1 in intact cells): 5790 nM and 2290 nM and 2000 to 6000 nM | IC50 (Rat 11β-HSD1 [2]; intact rat Leydig cells, read-out: Rat 11β-HSD1 IC50 (nM) in Leydig cells): 5790 nM | IC50 (Rat 11β-HSD1 [3]): 4.18 ± 0.24 µM
